Non-standard residues stand in square brackets, D forms with d. No end group written: not given here. pY = N[C@@H](Cc1ccc(OP(=O)(O)O)cc1)C(=O)O

For assay [1], the system named is PI3K activity measured as Akt phosphorylation. Briefly: Akt phosphorylation (Western blot) after peptide transfection. It counts as cell-based, human. The note with it: for inhibition of PI3K activity measured as inhibition level of Akt phosphorylation: MCF7 cells, peptide transfection at different doses (FIG. 12). The procedure:
Peptide transfection. In order to inhibit the p85 and ErbB3 interaction, MCF7, BT474 and MDA-MB-453 cell lines have been transfected using 80, 100, and 180 μg, respectively, of the following phosphopeptides:
(§1) Treatments and lmmunodecorations. […] Briefly the cells have been plated at 5×10^5 concentration in 60 mm plates. […] At the end of the treatment the cells have been lysed with RIPA buffer [150 mM NaCl, 1% NP-40, 0,5% sodium deoxycholate (DOC), 0.1% SDS, 50 mM TrisHCl (pH 8), 1 mM PMSF, 1 mM EGTA, 50 mM NaF, 50 mM Na3VO4 and protease inhibitors (Roche, Milano, IT)] in order to analyze the expression levels of phosphorylated and total ErbB-3, ErbB-2, ERK and HSP-70 proteins. In order to analyze the levels of Akt phosphorylation and expression, the cells have been lysed in NP-40 buffer [1% NP-40, 10% glycerol, 137 mM NaCl, 20 mM TrisHCl (pH 7.4), 50 mM NaF, 1 mM PMSF, 5 mM Na3VO4, protease inhibitors (Roche, Milano, IT)]. Cell lysates have been incubated on ice for 20 minutes and centrifuged at 14000 rpm for 20 minutes. RIPA buffer obtained cell extracts have been boiled for 5 minutes at 95° C., while NP40 buffer lysed samples have been boiled at 65° C. for 5 minutes. Samples have been subjected to SDS-PAGE and transferred on nitrocellulose filters (Bio-Rad, Milan, IT). Then the filters have been incubated with interest antibodies, washed and incubated with specific secondary horse radish peroxidase (HRP) conjugated antibodies. After thorough washing, nitrocellulose peroxidase activity has been detected by chemiluminescence (Lite-blot-Euroclone, Milano, IT)
For orientation: In western blotting, separated proteins are transferred to a membrane and probed.

The target of a further assay is T1, p85 and HER3 interaction (Homo sapiens, UniProt P27986).
T1 construct: Whole cell lysates have been imunoprecipitated with anti-p85 antibody; endogenous in cells; host or cells: MCF7, BT474, MDA-MB-453
Description: Immunoprecipitation with anti-p85, blot anti-HER3, in transfected cells. The settings on record: three cell lines, 48 hr after Lipofectamine transfection (FIG. 2B). The assay is classed as cell-based. An excerpt:
Immunoprecipitation. MCF7, BT474 and MDA-MB-453 cell lines have been plated at 5×10^5 concentration in 60 mm plates. On subsequent day cells have been transfected with 1257 phosphopeptide and contrrol phosphopeptide. […] Whole cell lysates have been imunoprecipitated with anti-p85 antibody (#06-496) in the presence of protein G (Pierce, Milan, IT). Whole proteins and immunocomplexes then have been subjected to 8% SDS-PAGE and transferred on nitrocellulose filter. The proteins have been detected by immunodecoration using anti-ErbB3 and anti-p110α antibodies.
The peptide has been transfected using Lipofectamine in all three cell lines. […] This binding is required in order PI3K kinase to be activated.

The next assay relates to HER2. Description: HER2 expression level and ErbB-2 homodimer (Western blot) after peptide transfection. It counts as cell-based, human. The procedure: as §1
A further assay has as its system MCF7/Luc cells. Briefly: In vivo growth of peptide-transfected MCF7/Luc cells inoculated s.c. Details: species or system SCID mice. The procedure:
(§2) Xeno-grafts. In vivo tests have been carried out using 40 day old SCID female mice (Harlan Laboratories, Milan, IT). At day 0, animals have been totally anesthetized with intramuscular injection of 400 μg/animal (average weight 25 g) of Zoletil (Virbac) containing 0.12% Xylor (Xylazine), and transplanted subcutaneously (s.c.), in intrascapular mouse region with pellet of […] (1.7 mg/sustained release pellet over 60 days, Innovative Research of America, Sarasota, Fla.). On the next day, 5×10^6 proliferating and scr and 1257 peptide previously transfected, as above described, MCF7 or BT474 cells, have been re-suspended in 0.1 ml of Matrigel (BD Biosciences) and subcutaneously inoculated in each mouse. […] Tumour growth has been monitored two times weekly using calibration along two orthogonal axes: length (L) and […]. The tumour volume (V) has been calculated using the formula V=L*(W2)/2. All the procedures relating to animals and treatment thereof have been carried out according institutional guidelines.
Generation of mammary tumour luminescent cells. Mammary tumour MCF7 cell lines stably transfected using pGL4.51 (luc2/CMV/Neo) expression vector, produced by Promega (Me, IT), have been transfected using scr or 1257 phosphopeptide ([…]×5×10^4 cells/mouse) and after 30 h subcutaneously inoculated in SCID mice (5×10^6 cells/mouse) in 200 μl (1:1 Matrigel: cell suspension in serum free medium). Mice have been in vivo imaged 20′ after inoculation and once weekly over 11 weeks. The animals have been anesthetized, as above reported, and subjected to intraperitoneal injection with 200 μl of luciferin (Caliper, Mi, IT); 10′ after incubation photon emission has been analyzed at 3′ minute exposure using Xenogen Ivis Lumina 2 machine. Growth of these cells has been monitored as reported in xenografts section.
Then it has been verified whether 1257 phosphopeptide was effective also in vivo. To this purpose immunocompromised SCID mice have been used. In the presence of oestrogen tablets, 5×10^6 control cells transfected with scr peptide or transfected with 1257 peptide have been injected subcutaneously between mouse scapulae. In order to verify the viability of phosphopeptide transfected cells in animals we have generated a stable luciferase gene expressing MCF7 cell line (MCF7/Luc).

The subject of a further assay is MCF7 xenograft. Briefly: Electroporation tumour therapy of MCF7 xenografts. It counts as in vivo, SCID mice. The procedure:
as §2
Electroporation tumour therapy. […] A dilute solution of 1257 peptide (75 ug) in 15 ul of sterile PBS has been directly injected in each xenograft, which subsequently has been electrode pulsed. PBS diluted scr peptide has been used as control, according to same procedure. As a further control we have analyzed two groups of not peptide injected animals, except that one of two was subjected to electroporation. Therapy has been repeated once weekly, and tumour size monitored up to 70 days.
Tumour size has been measured at regular intervals (alternate days) using a caliber and tumour volume has been calculated as above described. In order to minimize animal pain during the electroporation, tests have been carried out under total anesthesia. All the procedures concerning animals and treatment thereof have been carried out according to institutional guidelines.
In an attempt to use an experimental approach mimicking human therapy, scr or 1257 phosphopeptides has been administered directly into tumour. The administration of the peptide has been carried out by injection and successive electroporation in order to allow the phosphopeptide penetration. This technique facilitating the drug absorption from the tumour is used for human mainly to treat superficial lesions like melanomas, skin tumours or cutaneous metastases, but currently it is also used for carcinomas during pre-operation sessions. The peptide administration has been carried out when the tumour volume was 200 mm^3.

[2] abbreviates: s.c. inoculation of transfected MCF7 cells, up to 16th week.
Setting [3] is: intra-tumour injection + electroporation once weekly, MCF7.

T1 sequence (P27986 whole entry): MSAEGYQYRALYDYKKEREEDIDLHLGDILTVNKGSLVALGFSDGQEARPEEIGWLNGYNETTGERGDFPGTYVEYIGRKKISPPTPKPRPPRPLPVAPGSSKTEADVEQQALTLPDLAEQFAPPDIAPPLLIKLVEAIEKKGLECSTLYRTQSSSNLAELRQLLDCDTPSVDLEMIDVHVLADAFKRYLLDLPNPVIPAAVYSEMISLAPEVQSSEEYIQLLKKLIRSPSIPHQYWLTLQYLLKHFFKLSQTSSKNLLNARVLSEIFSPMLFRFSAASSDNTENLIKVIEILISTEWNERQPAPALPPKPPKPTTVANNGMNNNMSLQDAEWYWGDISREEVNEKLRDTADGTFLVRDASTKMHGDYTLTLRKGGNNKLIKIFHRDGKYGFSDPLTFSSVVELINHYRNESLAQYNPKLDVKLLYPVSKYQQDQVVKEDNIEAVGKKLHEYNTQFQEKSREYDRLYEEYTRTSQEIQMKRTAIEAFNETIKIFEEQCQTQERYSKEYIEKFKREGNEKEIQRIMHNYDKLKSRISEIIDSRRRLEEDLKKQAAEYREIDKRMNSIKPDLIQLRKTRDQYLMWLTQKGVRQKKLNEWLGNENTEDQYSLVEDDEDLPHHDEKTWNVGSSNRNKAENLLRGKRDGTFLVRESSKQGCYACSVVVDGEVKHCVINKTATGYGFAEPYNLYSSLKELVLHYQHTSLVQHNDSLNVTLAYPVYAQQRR

As for “RDGGGPGGDpYAAMGACPA (RDGGGPGGD[pY]AAMGACPA; listed as Homo sapiens) [1257 phosphopeptide]”, the “phosphorylation of Akt” value in assay [1] (MCF7, BT474 and MDA-MB-453 cells (FIG. 4A), Herceptin where combined) is recorded as “inhibition the phosphorylation of Akt”. In assay [1], the “inhibition of PI3K activity measured as inhibition level of Akt phosphorylation” value is on record as “remarkably inhibits Akt phosphorylation”. The “inhibition of PI3K activity measured as inhibition level of Akt phosphorylation” value in assay [1] (listed as 1257 peptide) was “high efficiency”. In addition, the “time after transfection for which Akt phosphorylation is inhibited” value in assay [1] (stability inside of cell (FIG. 5A)) is reported as “up to 6 days”. For the same substance, the “inhibition of p85 and HER3 interaction” value in the assay with p85 and HER3 interaction is “inhibits effectively p85 and HER3 interaction”. In addition, the “total level of HER2” value in the assay on HER2 (after peptide treatment (FIG. 4A), poorly appreciable in MDA-MB-453) is reported as “decrease”. Also, the ErbB-2 homodimer levels entry in the assay with HER2 (not reducing conditions (FIG. 5B)) is recorded as “favours the formation of ErbB-2 homodimer”. In the assay with MCF7/Luc cells (bioluminescence imaging weekly (FIG. 7A)), the “luminescence of transplanted cells over the time” value is “progressively decreases”. Also, the “time after inoculation at which tumours were calibratable” value in the assay on MCF7/Luc cells (s.c. inoculation of transfected MCF7 cells) was “about 10 week”. In the assay with MCF7/Luc cells (setting [2]), the “animals that displayed tumour” value was “One out of five” and the “reduction of tumour take” value is 80%. Also, the “apoptosis in tumours (TUNNEL assay)” value in the assay with MCF7 xenograft (immunohistochemistry of electroporation treated tumours (FIG. 9A)) was “go in apoptosis”. Moreover, in the assay on MCF7 xenograft (immunohistochemistry of electroporation treated tumours (FIG. 9B)), the “proliferation in tumours (Ki67 assay)” value is reported as “low proliferating index”. In the assay on MCF7 xenograft (setting [3]), the “inhibition of tumour growth compared to control not treated tumours” value is reported as 58% and the “inhibition of tumour growth compared to scr peptide inoculated tumours” value is 50%.

Source of the values: patent publication US20130259929A1, “USE OF A PHOSPHOPEPTIDE ABLE TO BLOCK HER3/P85 INTERACTION FOR THE TREATMENT OF HER2 HYPER-EXPRESSING TUMOURS” (priority 2010, published 2013).
